Assay results from the OPERA property sets (Mansouri et al. 2018).
In brackets after ≈: the same amount, converted by molar mass.

Conditions: 20 °C

SMILES	solubility
Cn1c(=O)c2c(n(C)c1=O)n(C)c(=O)n2C	112 mM (≈ 25000 µg/mL)
CCCCCCCS	0.07 mM (≈ 9.26 µg/mL)

Same assay, conditions: 21 °C

SMILES	solubility
O=C(O)c1cc(Br)ccc1Cl	11.2 mM (≈ 2630 µg/mL)
COc1ccc2[nH]c(=O)cc(C(=O)O)c2c1	0.776 mM (≈ 170 µg/mL)
O=C(O)COc1ccc([N+](=O)[O-])cc1[N+](=O)[O-]	11.6 mM (≈ 2800 µg/mL)
COc1ccc(NC(N)=O)cc1	25.6 mM (≈ 4250 µg/mL)
CCCCOc1cc(C(=O)NCCN(CC)CC)c2ccccc2n1	0.122 mM (≈ 42 µg/mL)

Same assay, conditions: 22 °C

SMILES	solubility
NNc1cccc(S(=O)(=O)O)c1	149 mM (≈ 28000 µg/mL)
Nc1c(Br)cc(Br)c(S(=O)(=O)O)c1Br	324 mM (≈ 133000 µg/mL)
O=C1CCCCCCCCN1	84.4 mM (≈ 13100 µg/mL)

Same assay, conditions: 23 °C

SMILES	solubility
O=c1[nH]c(=O)c2cc([N+](=O)[O-])cc([N+](=O)[O-])c2[nH]1	0.623 mM (≈ 157 µg/mL)
O=C(O)c1ccccc1C1OC(=O)c2ccccc21 (stereo not drawn)	0.787 mM (≈ 200 µg/mL)
NC(=O)C[C@H](NC(N)=O)C(=O)O	308 mM (≈ 54000 µg/mL)

Same assay, conditions: 24 °C

SMILES	solubility
c1ccc(CCNCc2ccccc2)cc1	1.89 mM (≈ 400 µg/mL)
Cc1ccc(S(N)(=O)=O)cc1N	12.1 mM (≈ 2260 µg/mL)

Same assay, conditions: 25 °C

SMILES	solubility
CCCC(C)(O)CCC	25.9 mM (≈ 3370 µg/mL)
CCC(CC)(C(=O)O)C(CC)(CC)C(=O)O	1.09 mM (≈ 250 µg/mL)
O=C(NNC(=O)c1ccccc1)c1ccccc1	25.8 mM (≈ 6200 µg/mL)
Cc1cccc(I)c1O	14.5 mM (≈ 3400 µg/mL)
CC(C)(CCC(C)(C)CC(=O)O)CC(=O)O	0.738 mM (≈ 170 µg/mL)
O=C(O)c1ccc(Br)c([N+](=O)[O-])c1	1.08 mM (≈ 265 µg/mL)
O=C1C(=O)c2ccccc2-c2ccccc21	0.036 mM (≈ 7.5 µg/mL)
Nc1cc(S(=O)(=O)O)ccc1C(=O)O	48.3 mM (≈ 10500 µg/mL)
CC(C(=O)O)N(CCC#N)CCC#N (stereo not drawn)	666 mM (≈ 130000 µg/mL)
Oc1ccc(C2CCCCC2)c(O)c1	2.65 mM (≈ 510 µg/mL)
CC(=O)N[C@@H](C(=O)O)C(C)C (racemic)	354 mM (≈ 56400 µg/mL)
CCCCOCCC(=O)OC	51.2 mM (≈ 8200 µg/mL)
CCOC(=S)SC(CC(=O)O)C(=O)O (stereo not drawn)	101 mM (≈ 24100 µg/mL)
O=C(O)C(=O)Nc1ccc(Cl)cc1Cl	5.29 mM (≈ 1240 µg/mL)
CCCOCCC(=O)OC	233 mM (≈ 34000 µg/mL)
CCCCCCCCCCNC(=O)C(C)O (stereo not drawn)	0.436 mM (≈ 100 µg/mL)
c1cn[nH]c1	285 mM (≈ 19400 µg/mL)
Cc1ccccc1N(C)C(N)=O	395 mM (≈ 64900 µg/mL)
O=C1OCc2ccc(Cl)cc21	3.3 mM (≈ 556 µg/mL)
CC(Cl)C(C)(C)O (stereo not drawn)	510 mM (≈ 62500 µg/mL)

SMILES	solubility
CO[C@H](C)[C@H](N)C(=O)O (racemic)	3100 mM (≈ 413000 µg/mL)
O=C(NC1CCCCC1)c1cccnc1	4.8 mM (≈ 980 µg/mL)
CCC1(C)OC(=O)NC1=O (stereo not drawn)	1050 mM (≈ 150000 µg/mL)
CC(=O)OCC(C)OC(C)=O (stereo not drawn)	624 mM (≈ 100000 µg/mL)
CCCS	25 mM (≈ 1900 µg/mL)
O=C(O)c1c(O)ccc2ccccc12	0.744 mM (≈ 140 µg/mL)
O=C(O)c1ccc2ccccc2n1	81.1 mM (≈ 14000 µg/mL)
CCC(=O)Oc1ccc([N+](=O)[O-])cc1	0.128 mM (≈ 25 µg/mL)
CCCCC(=O)NCCNC(=O)CCCC	15.3 mM (≈ 3500 µg/mL)
CCCC(C)C(O)CC (stereo not drawn)	10.9 mM (≈ 1420 µg/mL)
Nc1cc([N+](=O)[O-])ccc1Br	0.277 mM (≈ 60 µg/mL)
O=[N+]([O-])c1cc(CCO)ccc1O	69.9 mM (≈ 12800 µg/mL)
Nc1ccc(S(=O)(=O)c2ccc(Cl)cc2)cc1	0.0747 mM (≈ 20 µg/mL)
NC(C(=O)O)C(O)C(=O)O (stereo not drawn)	149 mM (≈ 22200 µg/mL)
CC(C)C1OCC2(CO1)COC(C(C)C)OC2 (stereo not drawn)	0.769 mM (≈ 188 µg/mL)
O=C(O)c1ccc(F)c([N+](=O)[O-])c1	26.2 mM (≈ 4860 µg/mL)
CCC(CC)(CC(=O)O)C(=O)O	160 mM (≈ 27900 µg/mL)
CC(=O)Oc1ccccc1/C=C/C(=O)O	0.698 mM (≈ 144 µg/mL)
CCCCOP(=O)(CCCC)OCCCC	2 mM (≈ 500 µg/mL)
O=c1ccccc(Br)c1O	3.67 mM (≈ 738 µg/mL)

SMILES	solubility
CC(=O)OOC(=O)c1ccccc1	3.55 mM (≈ 639 µg/mL)
NS(=O)(=O)c1cccc(S(N)(=O)=O)c1	6.77 mM (≈ 1600 µg/mL)
CC(=O)Nc1ccc2c(c1)C(=O)OC2	2.51 mM (≈ 480 µg/mL)
O=C(O)[C@@H]1CC[C@H](C(=O)O)SS1	44.9 mM (≈ 9360 µg/mL)
CC(N)C(O)C(=O)O (stereo not drawn)	443 mM (≈ 52800 µg/mL)
CCOC(=O)c1cccnc1	370 mM (≈ 56000 µg/mL)
CCCCC(C)C(C)O (stereo not drawn)	8.75 mM (≈ 1140 µg/mL)
COP(=S)(OC)SSP(=S)(OC)OC	0.04 mM (≈ 12.6 µg/mL)
Cn1cc([N+](=O)[O-])c(=O)[nH]c1=O	10.1 mM (≈ 1720 µg/mL)
CC(NCCC#N)C(=O)O (stereo not drawn)	985 mM (≈ 140000 µg/mL)
O=C(NCCO)c1cc(O)ccc1O	286 mM (≈ 56400 µg/mL)
N#CNC(N)=S	989 mM (≈ 100000 µg/mL)
CCOc1ccc(N(C(C)=O)C(C)=O)cc1	11.3 mM (≈ 2500 µg/mL)
CC(C)[C@@H](O)C#N	2020 mM (≈ 200000 µg/mL)
CC1OC(=O)c2cc(N)ccc21 (stereo not drawn)	16.3 mM (≈ 2650 µg/mL)
CC(=O)Nc1ccc(C)cc1	8.04 mM (≈ 1200 µg/mL)
NC(=O)Nc1ccc(Br)cc1	23.2 mM (≈ 5000 µg/mL)
COS(=O)(=O)c1ccccc1	18.1 mM (≈ 3120 µg/mL)
Cc1cccc(Cl)c1O	168 mM (≈ 24000 µg/mL)

Same assay, conditions: 26 °C

SMILES	solubility
N#CCCNC(CCC(=O)O)C(=O)O (stereo not drawn)	49.9 mM (≈ 10000 µg/mL)

Same assay, conditions: 28 °C

SMILES	solubility
CC(NC(N)=O)NC(N)=O	256 mM (≈ 37400 µg/mL)

Same assay, conditions: 29 °C

SMILES	solubility
Cc1cnc(NS(=O)(=O)c2ccc(N)cc2)nc1C	0.719 mM (≈ 200 µg/mL)

Same assay, conditions: 30 °C

SMILES	solubility
COC(=O)CNC(=O)c1ccccc1	88 mM (≈ 17000 µg/mL)
CCCCCOC(=O)c1ccc(O)cc1	0.154 mM (≈ 32 µg/mL)
CCCCCCCCS(=O)(=O)NS(=O)(=O)CCCCCCCC	0.122 mM (≈ 45 µg/mL)
C[C@H](Nc1ccccc1Cl)C(=O)O (racemic)	4.71 mM (≈ 940 µg/mL)
O=C(O)Cc1c[nH]c(=O)[nH]c1=O	23.5 mM (≈ 4000 µg/mL)
CCCCn1cnc2c1c(=O)n(C)c(=O)n2C	15.6 mM (≈ 3690 µg/mL)
